Experimental data reported in patent EP1037653B1, “COMPOSITIONS AND METHODS FOR REGULATING PHAGOCYTOSIS AND ICAM-1 EXPRESSION” (JOHNSON & JOHNSON CONSUMER COMPANIES, INC., priority 1997, dated 1999).

Key:
[1] = test system: macrophage cell line IC-21; assay: Vybrant Phagocytosis Assay Kit, ingestion of fluorescein-labeled E. Coli K-12 particles; type: cell-based; details: treated overnight; 100nM Compound I, 5µM SLIGRL, 0.1 mg/ml STI; untreated control = 100; one of three experiments
Procedure: To better quantify the level of phagocytosis, the "vybrant™ Phagocytosis Assay Kit" of Molecular Probes (Eugene, Oregon) was used, following manufacturer's instructions, with modification of cell culture conditions for the IC-21 cell line. This kit uses Fluorescein-labeled E. Coli K-12 particles, and is designed for quantifying the effects of drugs or other environmental factors on phagocytic functions. Macrophages were treated overnight with 100nM of Compound I, 5µM of SLIGRL, or 0.1 mg/ml of STI, all dissolved in PBS. The ability of the treated macrophages to ingest the fluorescent E. Coli, as measured by this kit, is documented in Table 1. This experiment was repeated three times.
In order to verify the quantitative nature of the macrophage-phagocytosis assay, a dose-response experiment was performed. Macrophages were treated with 0, 0.01, 0.1 and 1 mg/ml of STI, and the experiment was performed as described in Example 3. […] Each experiment was repeated three times.

[2] = test system: Primary melanocyte cultures plated under epidermal equivalents (EpiDerm); assay: Melanosome transfer (pigmentation) in equivalent-monolayer co-culture without keratinocyte-melanocyte contact; type: cell-based; details: no keratinocyte/melanocyte contact
Procedure: (§1) Since PAR-2 is expressed in keratinocytes, but not in melanocytes, the possible requirement of keratinocyte-melanocyte contact was tested for the effect of Compound I and SLIGRL on melanosome phagocytosis by the keratinocytes. Primary melanocyte cultures (commercially available from Clonetics, San Diego) were plated under epidermal equivalents (EpiDerm, of MatTek, Ashland, MA) to create an equivalent-monolayer co-culture with no contact between keratinocytes and melanocytes. These co-cultures were compared to MelanoDerm equivalents (of MatTek), where melanocytes are present in the basal layer of the equivalent. Cultures were treated with Compound I, with the […] agonist SLIGRL. As set forth in Table 3, keratinocytes are indicated by "K", melanocytes are indicated by "M", and lack of keratinocyte-melanocyte contact is indicated as "no K-M cont". […] The same result was also observed with monolayer keratinocyte/melanocyte co-cultures having keratinocyte/melanocyte contact.

Keratinocytes [3] = assay: F-actin staining, cytoskeletal organization; type: cell-based; details: Compound I 10 nM, STI 0.1 mg/ml, SLIGRL 5 µM; Figure 9
Procedure: Therefore, the organization of F-actin filaments following PAR-2 modulation was tested. Keratinocytes were treated with Compound I (10 nM), STI (0.1 mg/ml), or with SLIGRL (5 µM) as described in Example 1, and stained for F-actin using standard techniques.

ICAM-1 [4] = assay: ICAM-1 immunofluorescent staining of keratinocytes; type: cell-based, human; details: vs untreated keratinocytes; Figure 6A
Procedure: Intercellular adhesion molecule-1 (ICAM-1) is an inducible cell-surface glycoprotein that is implicated in cell-cell adhesion, cell membrane raffling and phagocytosis. Therefore, the effect of PAR-2 modulation on ICAM-1 was tested. Keratinocytes were grown in chamber slides and treated with SLIGRL, Compound I and STI as described, followed by immunofluorescent staining for ICAM-1 using standard procedures. Normal donkey serum, (used at 1:5 dilution), was obtained from Jackson Immunoresearch Laboratory (Westgrove, PA). A polyclonal goat antihuman ICAM-1 antibody, (used at 1:200 dilution), was obtained from R&D Systems (Minneapolis, MN), and FITC-conjugated donkey anti-goat antibody was obtained from Jackson Immunoresearch Laboratory. […] In untreated keratinocytes, ICAM-1 was localized mainly to the plasma membrane, with some staining at the nuclear membrane.

[5] = test system: macrophage cell line IC-21; assay: Fluorescent microsphere ingestion (phagocytosis); type: cell-based; details: IC-21 macrophages
Procedure: (§2) In this example, human primary keratinocytes or the human keratinocyte cell line HaCaT were used as in vitro model systems to study the effect of PAR-2 regulators on keratinocyte phagocytosis. The human primary keratinocytes used are commercially available from Clonetics (San Diego, CA). Cells were plated on chamber slides, at 2 chambers/slide and 60,000 cells/chamber. Cells were treated once daily, for two or three days, with Compound I (1µM), SLIGRL (10µM), or vehicle (Phosphate-buffered saline, ("PBS") from Gibco-BRL (Gaithersburg, MD). After two or three days of exposure to the test compounds, cells were exposed to Nile-red or FITC fluorescent microspheres, 1 µm in diameter, 50 microspheres/cell, for two hours at 37°C. Microspheres were from Molecular Probes (Eugene, OR), and were processed according to manufacturer's instructions. Following that treatment, cells were incubated with 15% Fetal Bovine Serum ("FBS", from Gibco-BRL), for 15 minutes at 37°C and rinsed with PBS. At that time, chambers were separated from the slides, and the slides were covered with glycerol and coverslips. Fluorescent microscopy was performed using a Zeiss Axiovert 35 or a Nikon Optiphot-2 microscope.
The experiment described in Example 1 was repeated using the macrophage cell line IC-21 (obtained from the ATCC), which shares phagocytic characteristics with peritoneal macrophages. […]

Human keratinocytes [6] = assay: Keratinocyte microsphere phagocytosis dose-response, image analysis of fluorescent beads; type: cell-based; details: two days; SLIGRL 0, 5 and 10 µM; Compound I 1pM to 1µM; STI 0.01 to 1 mg/ml
Procedure: as §2, with “microscope. […]” for “microscope.”
Image analysis of the fluorescent beads inside the keratinocytes was used as an alternative way to quantify the phagocytic effect in this system. […]

Human PMN cells = assay: Boyden chamber chemotactic cell migration towards FMLP; type: cell-based; details: with FMLP; cells counted at 115 microns; pretreated with 5 or 0.5 mg/ml STI, 1 or 0.1 µM Compound I; FMLP alone 41
Procedure: Since ICAM-1 is involved in cell migration, cell migration towards a chemotactic peptide was studied in cells treated with Compound I and STI. Human PMN cells were placed in one side of a Boyden chamber, using standard techniques, and a chemotactic peptide (FMLP) was placed in the other chamber. Cells were allowed to migrate into the second chamber, and the number of migrating cells per field and distance of migration were calculated. The experiment was repeated with PMN cells pretreated with one of the following: 5 or 0.5 mg/ml STI, 1 or 0.1 µM Compound I, a buffer vehicle, and with and without chemotactic peptide. The number of cells per field that migrated the same distance as the untreated control was measured. Without the peptide and with no treatment, an average of 19 cells/field were migrating a distance of 80 microns. […] In other words, no cells (or less than 5/field) were identified at 115 microns. […] The ability to inhibit PMN migration is an important constituent of anti-inflammatory compounds.

MelanoDerm equivalents = assay: Melanosome transfer (pigmentation) in melanocyte-containing equivalents; type: cell-based; details: same result in monolayer co-cultures with keratinocyte/melanocyte contact
Procedure: as §1

[7] = test system: human primary keratinocytes; assay: Fluorescent microsphere ingestion (phagocytosis), fluorescence microscopy; type: cell-based; details: treated two days; Compound I 1µM, SLIGRL 10µM; vs vehicle control; Figure 1
Procedure: (§3) In order to study the role of the PAR-2 pathway in phagocytosis, several in vitro model systems were used. One system used contained primary human keratinocytes or a human keratinocyte cell line. In this and a number of following examples, cells were treated with test compounds for different amounts of time (from one hour to three days), and samples were then incubated with fluorescent microspheres for two hours. The beads ingested by the cells were photographed using fluorescence microscopy.
(§4) In this example, human primary keratinocytes or the human keratinocyte cell line HaCaT were used as in vitro model systems to study the effect of PAR-2 regulators on keratinocyte phagocytosis. The human primary keratinocytes used are commercially available from Clonetics (San Diego, CA). Cells were plated on chamber slides, at 2 chambers/slide and 60,000 cells/chamber. […]

Keratinocytes [8] = assay: Melanin uptake by keratinocytes, Fontana-Mason staining; type: cell-based; details: treated two days; melanin powder two hours; Figure 5A; same results with isolated melanosomes (Figure 5B)
Procedure: This example tests the ability of keratinocytes to acquire melanin or melanosomes in vitro, and thus function as a simplified system for melanosome uptake in the skin. Keratinocytes were plated in glass chamber-slides as described earlier, and were treated for two days with SLIGRL, Compound I or STI. At that time, melanin powder (from Sigma, St. Louis, MO) was mixed in sterile PBS at 10 µg/ml, and was added to the culture media (1:10 dilution) for two hours. Cells were then washed with PBS and stained with Fontana-Mason ("F&M") staining. F&M stains silver nitrate-reducing molecules, thereby permitting the identification of melanins inside the keratinocytes. […] This system, therefore, can mimic melanosome transfer and melanin distribution in vivo, as skin keratinocytes use melanin as an UV-protective cap over their nuclei. […] The same results were also observed using melanosomes isolated as described in S. Orlow, et al., J.I.D. 100:55-64 (1993) (Figure 5B).

Keratinocytes [9] = assay: Scanning electron microscopy of cell podia; type: cell-based; details: treated two days; vs vehicle-treated controls; Figure 8
Procedure: Both phagocytosis and cell migration involve changes in cell shape. Therefore, the effect of the PAR-2 pathway reagents on cell podia were studied using scanning electron microscopy. Keratinocytes were treated with Compound I (identified as "SH00230"), SLIGRL and a buffer vehicle for two days, and then processed for SEM using standard techniques. […] In other words, the cells' "fingers" are shorter and malformed, so they cannot grasp objects as well as can the control cells. […] In other words, these cells have a greater probability for productive interaction with particles. Comparing these SEM pictures in Figure 8, it is clear that SLIGRL-treated cells have a greater ability to interact with particles, while Compound 1-treated cells are less suited for such a task.

Human keratinocytes [10] = assay: Timing of effect on keratinocyte microsphere phagocytosis; type: cell-based; set-up: key: +: Plus signs indicate an effect on phagocytosis; -: minus signs indicate no effect on phagocytosis; -/+: plus/minus signs indicate a marginal effect on phagocytosis; details: decrease for Compound I, increase for SLIGRL
Procedure: as §2
Human keratinocytes were treated with Compound I or SLIGRL for periods of time ranging from one hour to two days. At the end of the treatment period, the cells were treated with microspheres as described in Example 1. […] Plus signs indicate an effect on phagocytosis, minus signs indicate no effect on phagocytosis, and plus/minus signs indicate a marginal effect on phagocytosis. The effects measured were a decrease for Compound I and an increase for SLIGRL. […] This implies that the PAR-2 signaling results in new protein synthesis, a reduction in protein synthesis when a turnover time is required to eliminate the existing relevant protein(s), or a rearrangement of proteins (as occurs in the reorganization of cytoskeletal components).

[11] = test system: human keratinocyte cell line HaCaT; assay: Fluorescent microsphere ingestion (phagocytosis), fluorescence microscopy; type: cell-based; details: Figure 2, repeated at least three times
Procedure: as §3, §4

ICAM-1 [12] = assay: ICAM-1 immuno-precipitation and Western blotting in keratinocytes; type: cell-based; details: treated keratinocytes; Figure 6B
Procedure: Immuno-precipitation and Western blotting experiments were performed, according to known methods, to assess the level of ICAM-1 protein in treated keratinocytes.

“(S)-N-Methyl-D-phenylalanyl-N-[4-[(aminoiminomethyl)amino]-1-(2-benzothiazolylcarbonyl)butyl]-L-prolinamide [Compound I]” was tested, and the “% effect (ingestion)” value [1] was 89.9 +/- 13.6%, the “effect on melanosome transfer, measured as the level of pigmentation” value [2] was “no effect on melanosome transfer” and the actin filaments organization (Keratinocytes [3]) was “reduced the ordered organization of the cell cortex”. The “intracellular localization of ICAM-1” value (ICAM-1 [4]) was “less staining was observed at the cytoplasmic membrane, and more at the nuclear membrane”, the “number of microspheres ingested” value [5] was “reduced” and the “phagocytosis with increasing concentrations” value (Human keratinocytes [6]) was “dose-dependent decrease in phagocytosis”. The Cells/Field (Human PMN cells) was <5, the “pigmentation by affecting melanosome transfer” value (MelanoDerm equivalents) was “reduced” and the “quantity of ingested microspheres” value [7] was “dramatic reduction in the quantity of ingested microspheres”. The “uptake of melanin by keratinocytes” value (Keratinocytes [8]) was “dramatically reduce the uptake of melanin”, the “shape of cell podia” value (Keratinocytes [9]) was “dramatically shorter podia” and the effect on phagocytosis (Human keratinocytes [10]; Time of Treatment 1 hour) was “-”. For the same substance, the effect on phagocytosis (Human keratinocytes [10]; Time of Treatment 2 hours) was “-”, the effect on phagocytosis (Human keratinocytes [10]; Time of Treatment 4 hours) was “-” and the effect on phagocytosis (Human keratinocytes [10]; Time of Treatment 6 hours) was “-”. For the same substance, the effect on phagocytosis (Human keratinocytes [10]; Time of Treatment 8 hours) was “-/+”, the effect on phagocytosis (Human keratinocytes [10]; Time of Treatment 16 hours) was “+” and the effect on phagocytosis (Human keratinocytes [10]; Time of Treatment 24 hours) was “+”. For the same substance, the effect on phagocytosis (Human keratinocytes [10]; Time of Treatment 48 hours) was “+”, the microsphere ingestion [11] was “reduce microsphere ingestion” and the “level of ICAM-1 protein” value (ICAM-1 [12]) was “decreased the level of ICAM-1 expression”.
